Here are results for two compounds from US20110206673A1, “POLYPEPTIDES AND POLYNUCLEOTIDES FOR ARTEMIN AND RELATED LIGANDS, AND METHODS OF USE THEREOF” (priority 2007, published 2011).

Assay [1] deals with MCF7-ARTN and MCF7-Vec cells. Put plainly: Soft agar colony formation in the presence of Tamoxifen (six-well). The note with it: 1 μM and 5 μM. In kind it is cell-based, human. As to the method: For soft agar colony formation assay, cells were cultured in 6-well plates first covered with a layer of agar (0.5%). Cells were grown in RPMI 1640 media containing 10% FBS. The middle layer included 5×10^3 cells in 0.35% agar in RPMI 1640 media containing 10% FBS. Media was added as the top layer to prevent drying of the agarose gels. The plates were incubated at 37° C. in a humidified incubator for 14 days. After this, cells were stained with 0.5 ml of 0.005% crystal violet in distilled water for 1 h and distained for 2 h in water. Colonies were inspected and photographed.

Assay [2] concerns MCF-7 cells. Nature of the assay: Soft agar growth assay (96-well, MTT readout). In kind it is cell-based, human. As to the method: To perform soft agar colony formation assays, 50 μl of 0.5% agarose in serum containing medium was plated onto each well of 96-well flat-bottom microplates, as a base agar layer. Next, 5×10^3 cells in a 100 μl mixture of 0.35% agarose in serum containing medium were plated onto the base layer. Subsequently, 100 μl of the medium was added to prevent drying of the agarose gels. For antibody treatment, the antibodies at the indicated concentrations were added into the top agar layer and the culture medium to ensure the complete exposure of cells to antibodies. The plates were incubated at 37° C. in a humidified incubator. The top culture medium including the antibodies was changed every 3 days. After 10 days, 20 μl of 5 mg/ml MTT (Sigma Chemical Company, St Louis, Mo., USA) was added into each well and incubated at 37° C. for 4 hours followed by adding 100 μl of acidified lysis buffer (0.01% HCl in 10% SDS). The plate was incubated at 42° C. to ensure a homogenous mixture. The plate was shaken briefly and then read at 595 nm (test wavelength) and 690 nm (reference wavelength) using the Synergy™ 2 Multi-Mode Microplate Reader (BioTek instruments, Inc., Vermont, USA).

Assay [3] relates to MCF7-ARTN and MCF7-Vec cells. Put plainly: MTT assay of chemotherapy drug induced death. The note with it: 10% serum; both MCF7-ARTN and MCF7-Vec cells. In kind it is cell-based, human. On the technique in general: Tetrazolium dyes change colour on reduction, which living cells bring about.
Description: MTT (3-[4,5-dimethylthiazol-2-yl]-2,5-diphenyl tetrazolium bromide) assays were used measure cell proliferation. Cells were seeded into 96 well flat bottom tissue culture microplates in 100 μl RPMI-1640 culture medium containing 10% FBS at a concentration of 5×10^3 cells/well. On assay day, 10 μl of the MTT labelling reagent was added at a final concentration 0.5 mg/ml to each well and the cells were labelled for 5 h in the incubator. At the end of the incubation period, the media was removed and the converted dye was solubilised with 100 μl solubilising solution (0.01N HCl in 10% SDS in water). The plates were then sealed and placed at 37° C. overnight to completely solubilise the purple formazan crystals. The absorbance of the converted dye was measured using Spectra Max 250 multiplate reader at a wavelength of 570 nm with background subtraction at 650 nm. Each treatment was performed at least in triplicate.
For assay [4], the system named is MCF-7 breast cancer cells. The note with it: cited from earlier work.

Each structure is given as a SMILES string.

In the case of `CC/C(=C(\c1ccccc1)c1ccc(OCCN(C)C)cc1)c1ccccc1` [Tamoxifen], the “number of colonies formed in soft agar” value in assay [1] was “reduced the number of colonies”. For the same compound, in assay [2] (Tamoxifen 1 μM alone), the “soft agar growth compared with controls” value was found to be 40.4%. Further, the “cell death (MTT viability)” value in assay [3] is recorded as “caused cell death in a dose dependent manner”. Moreover, the “effect at lower concentrations” value in assay [4] (0.1-1 μM) was “induce a cell-cycle arrest”. The “effect at pharmacological concentrations” value in assay [4] (above 5 μM) is on record as “induce apoptosis”.

On to `C[C@]12CC[C@@H]3c4ccc(O)cc4C[C@@H](CCCCCCCCC[S+]([O-])CCCC(F)(F)C(F)(F)F)[C@H]3[C@@H]1CC[C@@H]2O` (stereo partly drawn) [Faslodex, Faslodex (ICI 182,780)], for which the “soft agar growth compared with controls” value in assay [2] (Faslodex (ICI 182,780) 100 nM alone) was 55.8%.
